SMILES strings stand for the structures. ≈ marks a conversion by molar mass, not a printed value.

Consider one compound from patent publication US6399654B1, “Biflavanoids and derivatives thereof as antiviral agents” (priority 1995, dated 2002).

Data set [1] deals with Influenza A (H3N2) Beijing/32/92. Briefly: microbe, parasite or virus in culture. The format is cell-based, influenza A virus. The settings on record: Influenza A virus, MDCK; Influenza A (H3N2) Beijing/32/92; read-out: Neutral Red EC50.
Data set [2] has as its system Influenza A (H1N1) Texas/36/91. As to the kind of experiment: microbe, parasite or virus in culture. The settings on record: Influenza A virus, MDCK; Influenza A (H1N1) Texas/36/91; read-out: CPE Inhibition EC50. The format is cell-based, influenza A virus.
The nature of data set [3]: in vitro. The settings on record: African green monkey.
Data set [4] deals with Hepatitis B Virus (HBV). As to the kind of experiment: HBV proteins and nucleic acids in 2.2.15 cells. The format is cell-based. The settings on record: Day 9, 2.2.15 cells; robustaflavone @10 μM. The procedure:
Values of HBV proteins were determined by semi-quantitative EIA performed as previously described.^83 For the EIA analyses, test samples-were diluted (2- to 10-fold) so that the assay values produced were within the linear dynamic range of the EIA assays. Standard curves using serial dilutions of positive assay controls were included in each set of EIA analyses. HBV surface antigen ([…]), preSI protein, and HBc antigen ([…]) are released as extracellular products and were therefore analyzed in culture medium obtained 24 h following the last treatment dose of oligonucleotides or 2′, 3′-ddc. HBV core antigen (HBcAg) is an intracellular viral protein and was assayed in cell extracts produced by Triton-X-100 lysis.^83
Cultures for HBV RNA were maintained on 6-well plates, cultures for HBV virion DNA analyses were maintained on either 96- or 24-well plates, and cultures for all other HBV parameters were maintained on 24-well plates.
The concentrations of antiviral agents used in these studies approximates the EC50 values of the individual agents against intracellular HBV DNA replication intermediates (HBV RI). Cultures were treated with the indicated agents for 9 days using standard procedures. Values reported are the levels of the indicated HBV markers at the end of the treatment period (“DAY 9”) expressed as a percentage (±standard deviation (S.D.) of the average levels in the control cultures at the beginning of the treatment period (“DAY 0”). The method of expression permits an analysis of the variation of the HBV markers in the untreated (control) cultures over the course of the treatment period. HBV nucleic acid levels were measured by standard blot hydridization (dot, Southern, or Northern). HBV protein levels were measured by standard semi-quantitative EIA methods. Cultures for HBV RNA were maintained in 6-well culture plates. The levels of each of two major classes of HBV RNA transcripts are listed separately. Cultures for all other HBV markers were maintained in 24-well culture plates. For each treatment, a total of 4 separate cultures were used for the analysis of each HBV marker at both DAY 0 and DAY 9.
Determination of Mechanism of Action. Measurements of intracellular and extracellular HBV DNA, 3.6 kb and 2.1 kb mRNA fragments, and HBsAg, HBeAg and HBcAg protein markers were conducted as previously described (93).

The test system of data set [5] is HSV-1. Briefly: HSV-1 CPE inhibition in HFF cells. The settings on record: for HSV-1 SI (CC50/EC50): HFF Cells.
The subject of data set [6] is Influenza B Panama/45/90. As to the kind of experiment: microbe, parasite or virus in culture. The settings on record: Influenza B virus, MDCK, read-out: Neutral Red EC50. The format is cell-based.
Data set [7] is described as follows: Cytotoxicity by neutral red dye uptake, A549 cells. The settings on record: human.
Data set [8] in a line: Cytotoxicity by neutral red dye uptake, BSC-1 cells. The settings on record: African green monkey.
The nature of data set [9]: in vitro. The settings on record: dog, Neutral Red IC50 (cytotoxic).
Data set [10] concerns Respiratory Syncytial Virus. Briefly: microbe, parasite or virus in culture. The format is cell-based. The settings on record: human respiratory syncytial virus, MA104; read-out: Neutral Red EC50.

A word on the EC50: it is the concentration that produces a half-maximal response. By IC50 is commonly meant the concentration that inhibits the measured activity by half. `O=c1cc(-c2ccc(O)c(-c3c(O)cc4oc(-c5ccc(O)cc5)cc(=O)c4c3O)c2)oc2cc(O)cc(O)c12` [Robustaflavone (3), robustaflavone]: the EC50 in data set [1] was 1.8 µg/mL (≈ 3.34 µM); in data set [2], 1.9 µg/mL (≈ 3.53 µM); in [5] (Human alphaherpesvirus 1, HFF, read-out: HSV-1 CPE Inhibition EC50), 8.6 µg/mL (≈ 16 µM); in data set [6], 0.22 µg/mL (≈ 0.409 µM); in data set [10], approximately 56 µg/mL (≈ 104 µM). In addition, the 50% inhibitory concentration (IC50) in data set [3] (CPE Inhibition IC50 (cytotoxic), Respiratory Syncytial Virus test) was 56 µg/mL (≈ 104 µM); in data set [3] (CPI Inhibition IC50 (cytotoxic), Parainfluenza Type 3 Virus test) it was 56 µg/mL (≈ 104 µM); in [7], 102 µg/mL (≈ 189 µM); in data set [8] it was approximately 100 µg/mL (≈ 186 µM); in [9] (Influenza A (H1N1) test), approximately 32 µg/mL (≈ 59.4 µM); in data set [9] (Influenza A (H3N2) test), approximately 100 µg/mL (≈ 186 µM). The compound further returned an IC50 in data set [9] (Influenza B test) of 100 µg/mL (≈ 186 µM). Besides, the “Viral Antigens: HBeAg” value in [4] is reported as 86 ± 6 % of Day 0 Control. Besides, the “Viral Antigens: HBsAg” value in data set [4] is 97 ± 6 % of Day 0 Control. Also, the “Viral Antigens: HbcAG” value in data set [4] is given as 138 ± 8 % of Day 0 Control. Besides, the “Viral DNA: Extracellular DNA” value in data set [4] is listed as 1 ± 1 % of Day 0 Control. Besides, the “Viral DNA: Intracellular DNA” value in [4] was 5 ± 1 % of Day 0 Control. Besides, the “Viral mRNA: 3.6 kb and 2.1 kb mRNA (first column)” value in [4] is 93 ± 10 % of Day 0 Control. Also, the “HSV-1 SI (CC50/EC50)” value in [5] (listed as Robustaflavone(3)) and in [5] (listed as robustaflavone (3)) was more than 11.6 in each case.
